Structures can show the parent of a compound that is named as a salt.
Tests used:
HepG2 cells = test: Image based high content analysis (HCA), fixed and live assays, in HepG2
Experimental: Briefly, the cells were grown in DMEM supplemented with 10% heat inactivated FBS, 1% penicillin-streptomycin (PEST), 1% sodium pyruvate, and 1% nonessential amino acids. Cells were passaged at 1 : 8 or 1 : 6 every 3-4 days when they reach 75–80% confluence. Seeding density was optimized for HCA application to ensure that the cells were in a monolayer (5000 cells per well in 96-well plates) for precise imaging. The cells were grown for 48 h to attach and stabilize. The experiments performed with HepG2 cells were designed to ensure that each assay was performed with cells in a similar growth phase.
Each concentration was assayed in triplicate wells. […] The experimental process is illustrated in Figure 2.
And finally, TOTO-3 was used for assessing PMP.
The cells were imaged using an Olympus ScanR system.
All other fluorescence signals were considered as subobjects.

[1] = system: hiPSC derived hepatocytes (hiPS-HEP); conditions: human, 48 h;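 note: hiPS-HEP obtained from ChiPSC4 through definitive endoderm under serum- and feeder-free conditions in 96-well plates, fluorescence imaging, each concentration run in triplicate wells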
Source text: (§1) For hepatic differentiation, a serum- and feeder-free procedure recapitulating liver development was applied. First, ChiPSC4 was guided to differentiate into definitive endoderm using the Cellartis DE Diff Kit (Takara Bio Europe AB; Y30030), containing complete media and coating solution for differentiation of hPSC to DE cells in 2D culture. On day 7 of differentiation, the DE cells were enzymatically dissociated and reseeded into fibronectin coated 96-well plates. […] Wells of 96-well plates were coated by adding fibronectin solution 0.15 mL per cm^2 to the wells and let to incubate for >60 min at RT. […] Next, the cell suspension was centrifuged for 5 min at 300 g at RT, the supernatant was removed, and the cell pellet was resuspended in warm Hepatocyte Thawing and Seeding medium (Cellartis Hepatocyte Diff Kit; Takara Bio Europe AB; Y30050). Prior to seeding of cells, excess coating was removed and 150 K DE cells/cm^2 were seeded in the 96-well plates. On days 9 and 11 (counted from the start of ChiPSC4 differentiation), medium was changed using Hepatocyte Progenitor Medium (Cellartis Hepatocyte Diff Kit).
(§2) The cells were treated for 48 h with compounds at varying concentrations (half log dilution from the top concentration). […] The stock solutions were prepared in DMSO or water and were diluted in culture medium to obtain the final concentration. Each concentration was assayed in triplicate wells. Vehicle control wells were included and the final DMSO concentration in the medium never exceeded 0.5% (v/v). Each batch had two plates each for fixed and live assays.
(§3) LipidTOX Green neutral lipids and LipidTox Red phospholipidosis were used for identifying neutral lipid and phospholipid formation within the cells. MMP changes (Δψm) within the cell were measured using MitoTracker orange. Carboxy-H2DCFDA (6-carboxy-2′,7′-dichlorodihydrofluorescein diacetate) an acetylated fluorescent was used for measuring ROS. And finally, TOTO-3 was used for assessing PMP.
(§4) The fluorescence probes were grouped into two sets according to their optical compatibility and requirement of fixed or live material. […] The fluorescent probes for neutral lipids and phospholipids required the cells to be fixed and were assigned to the fixed assay. The probes MitoTracker orange, carboxy-H2DCFDA, and TOTO-3 were assigned to the live assay.
(§5) Following compound incubation, probes were administered to the cultures of the live assay. […] After incubation for 45 min at optimal cell culture conditions, the cells were changed to phenol red (PR) free medium for live cell imaging. For fixed assay, LipidTox Red probe was added with the compounds, and after 48 h the cells were fixed in 4% PFA supplemented with 1X Hoechst stain for 30 min at room temperature. Subsequently, cells were washed with PBS^+/+ and 1X LipidTOX Green stain diluted in PBS^+/+ was incubated with the cells for 30 min at room temperature. The plates were imaged without removing the buffer with probe.
(§6) The cells were imaged using an Olympus ScanR system. Prior to image acquisition, the heating system and CO2 gas flow were started to ensure optimal conditions in the ScanR chamber for live cell analysis. The incubator was set to 37°C with 5% CO2 and relative humidity of 90%. […] 20X long distance objective with NA 0.45 was used to image distinct fluorescence channels. In order to cover the entire well and also to capture maximum cell events sixteen fields per well (4 × 4 tile grid spread equally) were imaged. The channel exposure time for LipidTOX Green, LipidTOX Red, MitoTracker orange, and carboxy-H2DCFHDA were set based on the fluorescence of the negative control wells and were set constant within each plate. Exposure time for Hoechst and TOTO-3 was set in the range of 1–10 ms depending on cellular fluorescence intensity.
(§7) The acquired images were analyzed using ScanR analysis program from Olympus.

[2] = system: hiPSC derived hepatocytes (hiPS-HEP); test: Image based high content analysis (HCA), fixed and live assays, in hiPSC derived hepatocytes; conditions: hiPSC derived hepatocytes; negative control substance;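 note: hiPS-HEP obtained from ChiPSC4 through definitive endoderm under serum- and feeder-free conditions in 96-well plates, fluorescence imaging, each concentration run in triplicate wells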
Source text: as §1, §2, §3, §4, §5, §6, §7

[3] = HepG2, fixed assay, 48 h, p<0.05 vs control
[4] = HepG2, fixed, at 100 µM (Amiodarone HCL at […])
[5] = HepG2, live assay, 48 h, p<0.05 vs control
[6] = HepG2, live, at 100 µM (Amiodarone HCL at […])

CCCCc1oc2ccccc2c1C(=O)c1cc(I)c(OCCN(CC)CC)c(I)c1 [Amiodarone, amiodarone hydrochloride]
Detection of phospholipid accumulation / phospholipidosis (HepG2 cells; HepG2): false negative prediction
Category based on degree of injury (HepG2 cells; HepG2, […] for amiodarone, 100 μM for the others): severely
Severity (sum of individual scores, degree of injury) (HepG2 cells; HepG2, at 100 µM (Amiodarone HCL at […])): 20
IC50/EC50 Nucleus Area (HepG2 cells; HepG2, fixed assay, 48 h): 39.5 µM
IC50/EC50 Nucleus Cell count (HepG2 cells; HepG2, fixed assay, 48 h): 7.6 µM
IC50/EC50 Nucleus MI (HepG2 cells; HepG2, fixed assay, 48 h): 140 µM
IC50/EC50 Phospholipidosis Area (HepG2 cells; HepG2, fixed assay, 48 h): 7.3 µM
IC50/EC50 Phospholipidosis Count (HepG2 cells; HepG2, fixed assay, 48 h): 8.9 µM
IC50/EC50 Phospholipidosis MI (HepG2 cells; HepG2, fixed assay, 48 h): 35.6 µM
IC50/EC50 Steatosis Area (HepG2 cells; HepG2, fixed assay, 48 h): 30.6 µM
IC50/EC50 Steatosis Count (HepG2 cells; HepG2, fixed assay, 48 h): 19.5 µM
IC50/EC50 Steatosis MI (HepG2 cells; HepG2, fixed assay, 48 h): 23.6 µM
MEC, steatosis area (S, A) (HepG2 cells; [3]): 125 µM
MEC, steatosis mean intensity (S, MI) (HepG2 cells; [3]): 39.5 µM
Minimal effective concentration (MEC), viability cell count (V, CC) (HepG2 cells; [3]): 4 µM
Degree of injury score, Neutral Lipids Area (HepG2 cells; [4]): 0 (variation lower than 25%)
Degree of injury score, Neutral Lipids C (HepG2 cells; [4]): 2 (variation 150-300%)
Degree of injury score, Neutral Lipids MI (HepG2 cells; [4]): 3 (variation >300%)
Degree of injury score, Nucleus Area (HepG2 cells; [4]): 1 (variation ± 20-40%)
Degree of injury score, Nucleus CC (HepG2 cells; [4]): 3 (variation ± 60-100%)
Degree of injury score, Nucleus MI (HepG2 cells; [4]): 1 (variation ± 20-40%)
Degree of injury score, Phospholipids Area (HepG2 cells; [4]): 1 (variation 25-150%)
Degree of injury score, Phospholipids C (HepG2 cells; [4]): 0 (variation lower than 25%)
Degree of injury score, Phospholipids MI (HepG2 cells; [4]): 0 (variation lower than 25%)
Degree of injury (category) (HepG2 cells; HepG2, isomolar concentration of 100 µM ([…] for amiodarone)): Severe hepatotoxicity (severely toxic (≥15))
IC50/EC50 MMP MI (HepG2 cells; HepG2, live assay, 48 h): 345 µM
IC50/EC50 Nucleus Area (HepG2 cells; HepG2, live assay, 48 h): 29.1 µM
IC50/EC50 Nucleus Cell count (HepG2 cells; HepG2, live assay, 48 h): 7.2 µM
IC50/EC50 Nucleus MI (HepG2 cells; HepG2, live assay, 48 h): 25.0 µM
IC50/EC50 PMP MI (HepG2 cells; HepG2, live assay, 48 h): 147 µM
IC50/EC50 ROS MI (HepG2 cells; HepG2, live assay, 48 h): 4.6 µM
MEC, MMP mean intensity (HepG2 cells; [5]): 12.5 µM
MEC, ROS mean intensity (HepG2 cells; [5]): 12.5 µM
MEC, viability cell count (V, CC) (HepG2 cells; [5]): 12.5 µM
Degree of injury score, MMP MI (HepG2 cells; [6]): 1 (variation ± 20-40%)
Degree of injury score, Nucleus Area (HepG2 cells; [6]): 1 (variation ± 20-40%)
Degree of injury score, Nucleus CC (HepG2 cells; [6]): 3 (variation ± 60-100%)
Degree of injury score, Nucleus MI (HepG2 cells; [6]): 2 (variation ± 40-60%)
Degree of injury score, PMP MI (HepG2 cells; [6]): 1 (variation ± 20-40%)
Degree of injury score, ROS MI (HepG2 cells; [6]): 1 (variation ± 20-40%)
Concentration below which no cytotoxic effects were displayed [1]: 12.5 µM

O=C([O-])CC(O)(CC(=O)[O-])C(=O)[O-].[Na+].[Na+].[Na+] [Sodium citrate, sodium citrate]
Effects on all parameters measured over the whole dose range [2]: No significant effects
Degree of injury score, Phospholipids Area (HepG2 cells; [4]): 0 (variation lower than 25%)
Degree of injury score, Phospholipids C (HepG2 cells; [4]): 1 (variation 25-150%)
Degree of injury score, Phospholipids MI (HepG2 cells; [4]): 0 (variation lower than 25%)
Score for phospholipidosis (HepG2 cells; HepG2 cultures, at 100 μM): false positive score

Reference: paper PMC4736406 (Stem Cells International, 2016)
